# pIC50: −log10 of the molar value. Where two headings read alike, the source gives them in different places.
# Columns and labels:
# BRM = target: T1, BRM (Homo sapiens, UniProt P51531); assay: ATPase catalytic activity of BRM, ADP-Glo in vitro biochemical assay; details: for pIC50: 30 nM BRM, 400 μM ATP; for Ratio* (BRG1 IC50 (μM) divided by BRM IC50 (μM)): selectivity ratio BRG1 IC50 / BRM IC50
# T1 construct: made in house; host or cells: High Five insect cells
# How it was run: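 ADP-Glo luminescence, after depletion of leftover ATP and conversion of ADP, reported the activity. The 1 h room-temperature reaction held 400 μM ATP, 20 nM salmon sperm DNA and 30 nM BRM in 20 mM Tris pH 8, 20 mM MgCl2, 50 mM NaCl, 0.1% Tween-20, 1 mM DTT.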
# BRG-1 = target: T2, BRG-1 (Homo sapiens, UniProt P51532); assay: ATPase catalytic activity of BRG-1, ADP-Glo in vitro biochemical assay; details: 30 nM BRG-1, 400 μM ATP, read-out: BRG1 IC50
# T2 construct: made in house; host or cells: High Five insect cells
# How it was run: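 Once the ATPase reaction finished, leftover ATP was depleted over 40 minutes at room temperature. Generated ADP was next turned back into ATP during a 60-minute room-temperature step. Luciferase-derived light was then measured.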
# [1] = ATPase catalytic activity, ADP-Glo
# T2 sequence (P51532 whole entry): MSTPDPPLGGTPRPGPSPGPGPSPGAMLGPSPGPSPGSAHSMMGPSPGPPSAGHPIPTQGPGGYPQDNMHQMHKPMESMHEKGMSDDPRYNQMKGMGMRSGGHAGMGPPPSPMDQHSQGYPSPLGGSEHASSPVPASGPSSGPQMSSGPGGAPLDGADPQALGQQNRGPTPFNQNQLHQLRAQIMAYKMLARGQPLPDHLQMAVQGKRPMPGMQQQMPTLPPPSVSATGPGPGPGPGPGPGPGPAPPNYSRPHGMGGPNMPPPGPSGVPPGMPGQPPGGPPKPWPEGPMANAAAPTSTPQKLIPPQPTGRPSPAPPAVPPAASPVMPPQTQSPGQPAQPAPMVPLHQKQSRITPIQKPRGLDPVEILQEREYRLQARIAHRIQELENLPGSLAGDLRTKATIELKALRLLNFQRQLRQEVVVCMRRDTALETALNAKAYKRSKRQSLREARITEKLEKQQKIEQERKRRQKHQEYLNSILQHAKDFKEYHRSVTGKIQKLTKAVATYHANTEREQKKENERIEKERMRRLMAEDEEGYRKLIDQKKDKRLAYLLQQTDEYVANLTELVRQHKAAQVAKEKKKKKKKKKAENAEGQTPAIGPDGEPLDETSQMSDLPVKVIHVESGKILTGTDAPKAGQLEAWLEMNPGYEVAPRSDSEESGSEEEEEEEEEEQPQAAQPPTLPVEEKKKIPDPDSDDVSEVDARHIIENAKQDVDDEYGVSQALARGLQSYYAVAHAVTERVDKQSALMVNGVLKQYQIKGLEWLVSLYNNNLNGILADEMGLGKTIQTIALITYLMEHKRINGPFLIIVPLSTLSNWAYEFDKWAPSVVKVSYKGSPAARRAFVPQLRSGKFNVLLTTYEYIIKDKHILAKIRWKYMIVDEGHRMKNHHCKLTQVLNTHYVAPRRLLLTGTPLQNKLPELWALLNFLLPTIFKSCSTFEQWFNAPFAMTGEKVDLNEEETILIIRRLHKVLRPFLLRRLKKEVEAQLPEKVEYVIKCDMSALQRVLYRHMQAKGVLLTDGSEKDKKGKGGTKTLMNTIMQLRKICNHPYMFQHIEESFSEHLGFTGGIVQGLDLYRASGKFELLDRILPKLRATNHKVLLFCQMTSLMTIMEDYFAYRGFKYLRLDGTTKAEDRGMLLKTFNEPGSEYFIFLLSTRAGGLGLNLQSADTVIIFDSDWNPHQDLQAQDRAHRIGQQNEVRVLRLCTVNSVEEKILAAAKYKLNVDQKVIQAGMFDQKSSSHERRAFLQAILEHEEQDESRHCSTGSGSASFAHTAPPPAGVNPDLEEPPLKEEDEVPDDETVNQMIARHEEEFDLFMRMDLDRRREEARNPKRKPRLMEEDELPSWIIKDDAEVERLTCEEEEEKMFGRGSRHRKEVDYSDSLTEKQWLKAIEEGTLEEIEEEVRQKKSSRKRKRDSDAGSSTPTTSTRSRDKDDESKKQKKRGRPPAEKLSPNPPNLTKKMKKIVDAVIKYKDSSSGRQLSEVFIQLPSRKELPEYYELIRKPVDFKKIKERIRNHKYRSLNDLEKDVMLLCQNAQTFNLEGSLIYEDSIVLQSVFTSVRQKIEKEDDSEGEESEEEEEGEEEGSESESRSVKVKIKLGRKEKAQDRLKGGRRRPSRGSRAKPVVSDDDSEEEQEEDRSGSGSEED
# T1 sequence (P51531 whole entry): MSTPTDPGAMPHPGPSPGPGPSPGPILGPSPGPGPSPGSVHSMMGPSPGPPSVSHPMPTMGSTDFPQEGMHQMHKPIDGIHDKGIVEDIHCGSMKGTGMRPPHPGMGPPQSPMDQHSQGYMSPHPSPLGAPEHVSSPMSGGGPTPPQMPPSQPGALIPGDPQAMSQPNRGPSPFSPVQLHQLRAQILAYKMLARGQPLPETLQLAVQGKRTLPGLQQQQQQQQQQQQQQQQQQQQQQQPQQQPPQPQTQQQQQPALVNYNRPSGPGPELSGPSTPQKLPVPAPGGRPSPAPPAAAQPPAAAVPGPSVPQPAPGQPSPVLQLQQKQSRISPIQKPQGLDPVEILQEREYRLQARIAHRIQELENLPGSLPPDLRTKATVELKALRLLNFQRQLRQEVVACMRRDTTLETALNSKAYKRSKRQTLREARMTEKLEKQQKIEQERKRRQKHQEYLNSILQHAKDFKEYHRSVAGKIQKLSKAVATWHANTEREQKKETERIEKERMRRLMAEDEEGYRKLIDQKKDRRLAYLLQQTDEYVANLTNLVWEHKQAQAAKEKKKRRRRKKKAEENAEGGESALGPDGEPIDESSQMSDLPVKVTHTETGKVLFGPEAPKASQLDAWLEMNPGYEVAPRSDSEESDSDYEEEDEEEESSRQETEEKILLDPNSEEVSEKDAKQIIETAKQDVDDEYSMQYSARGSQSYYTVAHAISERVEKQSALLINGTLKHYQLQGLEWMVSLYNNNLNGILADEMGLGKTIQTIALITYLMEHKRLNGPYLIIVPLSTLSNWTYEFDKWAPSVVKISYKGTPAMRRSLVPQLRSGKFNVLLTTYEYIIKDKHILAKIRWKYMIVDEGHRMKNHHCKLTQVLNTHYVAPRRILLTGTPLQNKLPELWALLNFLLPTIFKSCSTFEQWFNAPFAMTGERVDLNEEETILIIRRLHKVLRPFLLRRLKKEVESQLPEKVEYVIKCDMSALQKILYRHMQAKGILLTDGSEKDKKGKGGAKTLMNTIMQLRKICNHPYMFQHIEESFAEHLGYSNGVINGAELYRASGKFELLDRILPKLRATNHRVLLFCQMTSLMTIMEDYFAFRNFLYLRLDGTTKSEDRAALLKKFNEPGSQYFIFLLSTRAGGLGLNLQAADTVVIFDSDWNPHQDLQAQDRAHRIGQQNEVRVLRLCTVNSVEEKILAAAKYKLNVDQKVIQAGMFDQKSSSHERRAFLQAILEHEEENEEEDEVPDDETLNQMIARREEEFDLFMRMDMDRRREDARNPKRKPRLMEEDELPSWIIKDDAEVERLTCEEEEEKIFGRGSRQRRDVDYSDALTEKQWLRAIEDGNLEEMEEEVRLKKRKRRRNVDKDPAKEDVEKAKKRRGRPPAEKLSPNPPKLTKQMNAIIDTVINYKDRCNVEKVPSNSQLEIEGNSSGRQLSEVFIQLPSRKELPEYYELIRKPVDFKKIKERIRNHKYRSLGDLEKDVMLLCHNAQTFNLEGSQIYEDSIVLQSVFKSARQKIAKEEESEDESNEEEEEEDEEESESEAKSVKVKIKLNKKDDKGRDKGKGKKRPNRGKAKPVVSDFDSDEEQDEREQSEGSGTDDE
pIC50 (BRM; ADP-Glo ATPase assay),Ratio* (BRM; ratio BRG1 IC50 / BRM IC50),pIC50 (BRG-1; ADP-Glo ATPase assay),pIC50 (BRM; [1]),Ratio* (BRM; ratio of BRG1 IC50 to BRM IC50),pIC50 (BRG-1; [1]),Ratio* (BRG1 IC50 (μM) divided by BRM IC50 (μM)) (BRM),SMILES
7.77,10.47,6.75,–,–,–,–,O=C(NCc1cc2nc(N3CCOc4ccc(C56CC(C5)C6)nc43)ccc2cn1)c1ccc2c(c1)S(=O)(=O)CCOC2 [Compound 766]
6.13,6.49,5.32,–,–,–,–,Cc1ccc(-c2ccc3cnc(CNC(=O)c4ccc5c(c4)S(=O)(=O)CCOC5)cc3n2)c(=O)n1C [Compound 824]
–,–,–,7.46,36.53,5.90,–,C[C@H]1COCc2ccc(C(=O)NCc3cc4nc(-c5cccc(C6CC6)n5)cnc4cn3)cc2S1(=O)=O [Compound 443]
8.04,–,6.98,–,–,–,11.42,COCCN1CCOc2c(-c3ccc4cnc(CNC(=O)c5ccc6c(c5)S(=O)(=O)CCOC6)cc4n3)cccc21 [Compound 172]
–,–,–,7.36,9.72,6.38,–,C[C@@H]1CCN(C)c2nc(-c3ccc4cnc(CNC(=O)c5ccc6c(c5)S(=O)(=O)CCOC6)cc4n3)ccc21 [Compound 695]
–,–,–,7.36,21.77,6.02,–,C[C@H]1COCc2ncc(C(=O)NCc3cc4nc(-c5cccc(C6CC6)n5)ccc4cn3)cc2S1(=O)=O [Compound 452]
–,–,–,7.50,11.23,6.45,–,CO[C@@H]1CCN(c2cccc(-c3ccc4cnc(CNC(=O)c5ccc6c(c5)S(=O)(=O)CCOC6)cc4n3)n2)C[C@@H]1C [Compound 438]
–,–,–,7.61,15.63,6.42,–,COc1cc(C(C)(F)F)ccc1-c1ccc2cnc(CNC(=O)c3ccc4c(c3)S(=O)(=O)CCOC4)cc2n1 [Compound 419]
7.72,–,6.61,–,–,–,13.08,CCN(CC)c1cccc(-c2ccc3cnc(CNC(=O)c4cc(F)c5c(c4)S(=O)(=O)CCOC5)cc3n2)n1 [Compound 62]
–,–,–,8.36,4.38,7.72,–,COc1cccc2c1CCCN2c1ccc2cnc(CNC(=O)c3ccc4c(c3)S(=O)(=O)CCOC4)cc2n1 [Compound 492]
6.02,–,5.30,–,–,–,5.23,COC[C@H](C)Nc1cccc(-c2ccc3cnc(CNC(=O)c4ccc(C(F)F)c(S(C)(=O)=O)c4)cc3n2)n1 [Compound 61]
7.65,–,6.63,–,–,–,10.43,CN(c1cccc(-c2ccc3cnc(CNC(=O)c4ccc5c(c4)S(=O)(=O)CCOC5)cc3n2)n1)[C@@H]1CCOC1 [Compound 116]
6.65,–,6.01,–,–,–,4.34,O=C(NCc1cc2nc(-c3cccc4c3CCN4C3COC3)ccc2cn1)c1ccc2c(c1)S(=O)(=O)CCOC2 [Compound 198]
–,–,–,8.08,8.70,7.13,–,CO[C@@H]1C[C@@H]1N(C)c1cccc(-c2ccc3cnc(CNC(=O)c4ccc5c(c4)S(=O)(=O)[C@@H](C)COC5)cc3n2)n1 [Compound 668]
7.96,–,7.03,–,–,–,8.63,C[C@H]1CN(c2cccc(-c3ccc4cnc(CNC(=O)c5ccc6c(c5)S(=O)(=O)CCOC6)cc4n3)n2)C[C@H](C)O1 [Compound 216]
–,–,–,6.48,2.54,6.08,–,CN1C(=O)CN(c2ccc3cnc(CNC(=O)c4ccc5c(c4)S(=O)(=O)CCOC5)cc3n2)c2ccccc21 [Compound 511]
8.09,–,7.23,–,–,–,7.31,CO[C@@H]1CCN(c2cccc(-c3ccc4cnc(CNC(=O)c5ccc6c(c5)S(=O)(=O)CCOC6)cc4n3)n2)C1 [Compound 200]

pIC50 (BRM; ADP-Glo ATPase assay),Ratio* (BRM; ratio BRG1 IC50 / BRM IC50),pIC50 (BRG-1; ADP-Glo ATPase assay),pIC50 (BRM; [1]),Ratio* (BRM; ratio of BRG1 IC50 to BRM IC50),pIC50 (BRG-1; [1]),Ratio* (BRG1 IC50 (μM) divided by BRM IC50 (μM)) (BRM),SMILES
7.73,–,6.84,–,–,–,7.68,COc1cc(Cl)ccc1-c1ccc2cnc(CNC(=O)c3ccc4c(c3)S(=O)(=O)CCOC4)cc2n1 [Compound 102]
7.35,–,6.37,–,–,–,9.47,C[C@@H]1CN(c2cncc(-c3ccc4cnc(CNC(=O)c5ccc(Cl)c(S(C)(=O)=O)c5)cc4n3)n2)C[C@H](C)O1 [Compound 182]
7.87,–,6.62,–,–,–,17.62,C[C@@H]1CN(c2cccc(-c3cnc4cnc(CNC(=O)c5ccc(C(F)F)c(S(C)(=O)=O)c5)cc4n3)n2)C[C@H](C)O1 [Compound 56]
7.23,–,6.08,–,–,–,13.95,O=C(NCc1cc2nc(-c3cccc(OCC(F)F)n3)ccc2cn1)c1ccc2c(c1)S(=O)(=O)CCOC2 [Compound 167]
–,–,–,7.60,7.37,6.73,–,O=C(NCc1cc2nc(-c3cccc(N4CCOCC(F)(F)C4)n3)ccc2cn1)c1ccc2c(c1)S(=O)(=O)CCOC2 [Compound 341]
–,–,–,8.17,18.76,6.89,–,COC[C@@H](C)Oc1ccc2c(c1)N(c1ccc3cnc(CNC(=O)c4ccc5c(c4)S(=O)(=O)CCOC5)cc3n1)CCC2 [Compound 696]
6.06,–,5.20,–,–,–,7.32,O=C(NCc1cc2nc(-c3cncc(C4CC4)n3)ccc2cn1)c1ccc2c(c1)[S+]([O-])CCOC2 (stereo not drawn) [Compound 299]
6.28,–,5.33,–,–,–,8.82,O=C(NCc1cc2nc(-c3cccc(F)n3)ccc2cn1)c1ccc2c(c1)S(=O)(=O)CCOC2 [Compound 243]
7.37,–,6.33,–,–,–,10.99,O=C(NCc1cc2nc(-c3cccc(N4CC5(C4)CC5(F)F)n3)ccc2cn1)c1ccc2c(c1)S(=O)(=O)CCOC2 [Compound 128]
–,–,–,7.06,9.96,6.06,–,COCCn1cc2cccc(-c3ccc4cnc(CNC(=O)c5ccc6c(c5)S(=O)(=O)CCOC6)cc4n3)c2n1 [Compound 701]
7.72,–,6.70,–,–,–,10.42,O=C(NCc1cc2nc(-c3cccc(N4CCCOCC4)n3)ccc2cn1)c1ccc2c(c1)S(=O)(=O)CCOC2 [Compound 78]
–,–,–,7.67,13.72,6.53,–,O=C(NCc1cc2nc(-c3ccc(C(F)F)cc3OC3CC3)ccc2cn1)c1ccc2c(c1)S(=O)(=O)CCOC2 [Compound 357]
7.30,–,6.15,–,–,–,14.09,CS(=O)(=O)c1cc(C(=O)NCc2cc3nc(-c4cccc(N5CC[C@@H]6COC[C@@H]6C5)n4)ccc3cn2)ccc1C(F)F [Compound 96]
7.43,8.10,6.53,–,–,–,–,COc1cnc2c(c1)CCN2c1ccc2cnc(CNC(=O)c3ccc4c(c3)S(=O)(=O)CCOC4)cc2n1 [Compound 703]
–,–,–,8.15,48.50,6.47,–,CCc1ccc2c(n1)N(c1ccc3cnc(CNC(=O)c4ccc5c(c4)S(=O)(=O)CCOC5)cc3n1)CCO2 [Compound 658]
–,–,–,7.47,26.25,6.05,–,CCOCc1ccc2c(n1)N(c1ccc3cnc(CNC(=O)c4ccc5c(c4)S(=O)(=O)CCOC5)cc3n1)CCC2 [Compound 564]
–,–,–,7.49,29.69,6.01,–,Cc1ccc2c(n1)N(c1ccc3cnc(CNC(=O)c4ccc5c(c4)S(=O)(=O)[C@@H](C)COC5)cc3c1)CCO2 [Compound 680]

# Reference: patent US20230416248A1, “COMPOUNDS AND USES THEREOF” (Foghorn Therapeutics Inc., priority 2020, published 2023)
